≈ marks a conversion by molar mass, not a printed value. Where “and” joins values, the source holds several entries; their conditions need not be identical. Identical values can stand only once. Like-named read-outs stand apart in the source and are kept apart here.
How the values were obtained:
[1] = tested on: Rhizomucor pusillus (ATCC 16458); experiment: CLSI MIC; type: cell-based; settings: ATCC16458, 1 strain
[2] = tested on: Candida krusei (ATCC 6258); experiment: CLSI MIC; type: cell-based; settings: Pichia kudriavzevii, ATCC6258
[3] = tested on: Cryptococcus neoformans (ATCC 24067); experiment: CLSI MIC; type: cell-based
[4] = tested on: Aureobasidium pullulans (ATCC 348); experiment: CLSI MIC; type: cell-based; settings: ATCC348, 1 strain
[5] = tested on: A. fumigatus (ATCC 13073 [strain NIH 5233]); experiment: MIC against the strain used in vivo; type: cell-based; settings: Aspergillus fumigatus, ATCC13073
[6] = tested on: A. fumigatus isolates; parameters: method as in PMID 12202554; settings: MFC = lowest dilution yielding less than 3 colonies; cited from earlier work
[7] = tested on: Gibberella zeae(Fusarium graminearum) (ATCC 16106); experiment: microbe, parasite or virus in culture; type: cell-based; settings: ATCC16106
[8] = tested on: Lichtheimia corymbifera (ATCC 7909); experiment: CLSI MIC; type: cell-based; settings: ATCC7909, 1 strain
[9] = tested on: A. fumigatus hyphae (NCPF2010); experiment: Persistence of action on A. fumigatus hyphae (resazurin microtiter assay); type: cell-based, Aspergillus fumigatus; settings: for IC50: Aspergillus fumigatus, NCPF2010
Description: The duration of action of test agents within the hyphae of A. fumigatus has been determined using a resazurin-based microtiter assay ([28]).
The persistence of action of the test agents against A. fumigatus hyphae (NCPF2010) was determined as previously reported ([28]). […] The plates were incubated for exactly 20 min at 35°C in 5% CO2. After the incubation time had elapsed, all wells on the designated washout plate were aspirated and growth medium (100 μl/well) was added across the plate. […] Resazurin (0.04% diluted in growth medium) was added to all wells of both the nonwashout and washout plates (5 μl/well) to give a final concentration of 0.002% resazurin. The plates were incubated at 35°C in 5% CO2 for 16 h. Subsequently, the fluorescence in each well was measured at an excitation λ of 545 nm and an emission λ of 600 nm using a multiscanner (Clariostar; BMG, Buckinghamshire, UK). […] This study was conducted in quadruplicate in three independent experiments.

[10] = tested on: Candida glabrata (ATCC 36583, R363); experiment: CLSI MIC; type: cell-based; settings: Nakaseomyces glabratus
[11] = tested on: Candida albicans AR (20183.073, 20186.025); experiment: CLSI MIC; type: cell-based
[12] = biological target: A. fumigatus CYP51A (Aspergillus fumigatus, UniProt Q4WNT5); experiment: CYP51 reconstitution assay (sterol 14α-demethylase inhibition)
A. fumigatus CYP51A, sequence (Q4WNT5 whole entry): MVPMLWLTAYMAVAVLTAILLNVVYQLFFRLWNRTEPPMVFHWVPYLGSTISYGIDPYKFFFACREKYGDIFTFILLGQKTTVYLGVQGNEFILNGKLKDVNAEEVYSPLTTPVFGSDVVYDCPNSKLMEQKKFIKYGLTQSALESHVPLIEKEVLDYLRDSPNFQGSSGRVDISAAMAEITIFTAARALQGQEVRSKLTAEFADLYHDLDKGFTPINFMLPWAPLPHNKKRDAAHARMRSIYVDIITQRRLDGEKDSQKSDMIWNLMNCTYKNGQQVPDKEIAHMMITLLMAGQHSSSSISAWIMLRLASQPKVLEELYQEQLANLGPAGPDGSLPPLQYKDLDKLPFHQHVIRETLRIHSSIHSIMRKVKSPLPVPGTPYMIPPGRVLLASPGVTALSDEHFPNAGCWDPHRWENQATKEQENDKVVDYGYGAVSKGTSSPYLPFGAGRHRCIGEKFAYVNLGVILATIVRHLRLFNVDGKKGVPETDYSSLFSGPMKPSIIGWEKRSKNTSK
Description: (§1) The test agent was added to a mixture of 0.5 μM CYP51, 1 μM A. fumigatus cytochrome P450 reductase isoenzyme 1 (AfCPR1), 50 μM eburicol, 4% (wt/vol) 2-hydroxypropyl-β-cyclodextrin, 0.4 mg/ml isocitrate dehydrogenase, 25 mM trisodium isocitrate, 50 mM NaCl, 5 mM MgCl2, and 40 mM 3-(N-morpholino) propanesulfonic acid (MOPS; pH of ∼7.2). The mixtures were then incubated at 37°C for 10 min prior to initiation with 4 mM β-NADPHNa4, followed by shaking for 20 min at 37°C. Sterol metabolites were recovered by extraction with ethyl acetate followed by derivatization with 0.1 ml N,O-bis(trimethylsilyl)trifluoroacetamide: trimethylchlorosilane (99:1) and 0.3 ml anhydrous pyridine prior to analysis by gas chromatography-mass spectrometry.

[13] = tested on: A. fumigatus (ATCC 13073 [strain NIH 5233]); experiment: In vivo antifungal activity, late intervention (intranasal, days 1-3 postinfection), temporarily neutropenic mice; settings: for inhibition of GM in serum: 0.08 mg/ml (2.8 μg/mouse) intranasal once daily days 1-3; for inhibition of fungal load (CFU) in the lung vs vehicle: 0.08 mg/ml, 35 μl intranasal once daily days 1-3 postinfection
[14] = in vivo; settings: mouse
[15] = tested on: 23 pathogenic fungi; type: cell-based; settings: broad spectrum of pathogenic fungi
[16] = tested on: A. fumigatus (ATCC 13073); experiment: In vivo persistence of action: single intranasal prophylactic dose 16 h before inoculation; settings: PC1244 0.4 mg/ml, POS 0.8 mg/ml intranasal 16 h before inoculation; lungs 8 h after
[17] = in vivo
[18] = tested on: Candida parapsilosis (ATCC 22019); experiment: CLSI MIC; type: cell-based; settings: ATCC22019, 1 strain, MIC = 50% inhibition of fungal growth
[19] = tested on: A. fumigatus (ATCC 13073 [strain NIH 5233]); experiment: In vivo extended prophylaxis (intranasal, days -7 to 0) in infected immunocompromised mice; settings: 0.0032 mg/ml (0.11 μg/mouse), compared to late intervention at the same dose
Description: The test agents, suspended in physiological saline, were administered intranasally (35 μl, approximately 17.5 μl each in each nostril) once daily on days 1, 2, and 3 postinfection. […] As the injection volume was fixed and the body weight changed every day, especially after infection, the accurate dose unit was the number of micrograms per mouse. However, as the average body weight after immunosuppression and just before infection was 20 g, we also calculated the estimated dose in milligrams per kilogram.

[20] = tested on: sterol composition of A. fumigatus (NCPF2010); experiment: A. fumigatus sterol analysis (GC-MS); type: cell-based, Aspergillus fumigatus; settings: 2 h
[21] = biological target: A. fumigatus CYP51B (Aspergillus fumigatus, UniProt E9QY26); experiment: CYP51 reconstitution assay (sterol 14α-demethylase inhibition)
A. fumigatus CYP51B, sequence (E9QY26 whole entry): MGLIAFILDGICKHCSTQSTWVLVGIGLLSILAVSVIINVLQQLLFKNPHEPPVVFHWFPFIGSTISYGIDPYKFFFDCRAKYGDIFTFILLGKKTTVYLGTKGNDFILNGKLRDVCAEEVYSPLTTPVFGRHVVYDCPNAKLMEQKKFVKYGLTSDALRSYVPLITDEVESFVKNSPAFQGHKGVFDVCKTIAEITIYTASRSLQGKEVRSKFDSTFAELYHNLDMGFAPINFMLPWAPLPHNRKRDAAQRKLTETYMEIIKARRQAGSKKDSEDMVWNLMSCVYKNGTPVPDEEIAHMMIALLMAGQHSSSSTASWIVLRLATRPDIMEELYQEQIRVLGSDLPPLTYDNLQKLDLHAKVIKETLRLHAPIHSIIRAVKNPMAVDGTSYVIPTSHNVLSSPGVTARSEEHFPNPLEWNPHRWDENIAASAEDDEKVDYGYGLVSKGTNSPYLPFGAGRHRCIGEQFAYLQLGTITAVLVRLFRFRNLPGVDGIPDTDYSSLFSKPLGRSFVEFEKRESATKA
Description: as §1

[22] = tested on: Cryptococcus gattii (clinical isolate); experiment: EUCAST MIC (EDef 7.2); type: cell-based; settings: 1 strain
[23] = tested on: A. fumigatus ATCC 204305; experiment: EUCAST MIC, quality control strain; type: cell-based; settings: Aspergillus fumigatus, ATCC204305; quality control strain ATCC 204305
Source text: The antifungal activity of PC1244 was further evaluated against 96 clinical isolates (obtained from Saint Louis Hospital, Paris, France [50 isolates], and the North West England Mycology Reference Centre, Manchester, UK [46 isolates]). […] .

[24] = 20 min contact, washout, 16 h incubation, read-out: Hyphae IC50 Washout
[25] = continuous contact 16 h, read-out: Hyphae IC50 No washout
[26] = ATCC24067, CLSI, 1 strain, read-out: MIC

C[C@@H](c1ncncc1F)[C@](O)(Cn1cncn1)c1ccc(F)cc1F [Voriconazole, voriconazole]
MIC [1]: > 8 µg/mL
MIC [2]: 0.25 µg/mL (≈ 0.716 µM)
MIC ([3]; ATCC24067): 0.016 µg/mL (≈ 0.0458 µM)
MIC [4]: > 8 µg/mL
MIC [5]: 0.5 µg/mL (≈ 1.43 µM)
range of MFCs for inhibition of 90% of isolates tested (MFC90) [6]: 0.5 to 4 µg/mL
MIC [7]: > 8 µg/mL
MIC [8]: > 8 µg/mL
IC50 [9, 24]: > 1 µg/mL
IC50 [9, 25]: 0.011 µg/mL (≈ 0.0315 µM)
MIC ([10]; ATCC36583): 8.13 µg/mL (≈ 23.3 µM)
MIC [11]: 10 µg/mL (≈ 28.6 µM)

Cc1cc(N2CCN(c3ccc(C(=O)N[C@H]4CCCC[C@@H]4O)cc3)CC2)ccc1OC[C@@H]1CO[C@@](Cn2cncn2)(c2ccc(F)cc2F)C1 [PC1244, 4-(4-(4-(((3R,5R)-5-((1H-1,2,4-triazol-1-yl)methyl)-5-(2,4-difluorophenyl)tetrahydrofuran-3-yl)methoxy)-3-methylphenyl)piperazin-1-yl)-N-((1S,2S)-2-hydroxycyclohexyl)benzamide]
MIC [1]: 2 µg/mL (≈ 2.91 µM)
MIC ([2]; CLSI, 1 strain, read-out: MIC): 0.13 µg/mL (≈ 0.189 µM)
MIC [3, 26]: 0.016 µg/mL (≈ 0.0233 µM)
MIC [4]: 1 µg/mL (≈ 1.46 µM)
MIC ([5]; strain ATCC 13073, read-out: MIC): 0.063 µg/mL (≈ 0.0917 µM)
IC50 [12]: 270 nM
Ki [12]: < 1 nM
inhibition of GM in serum [13]: 82%
inhibition of fungal load (CFU) in the lung vs vehicle [13]: 97%
CXCL1 level in BALF ([13]; infection-dependent increase): reduced
interleukin-6 (IL-6) level in serum ([13]; infection-dependent increase): reduced
tumor necrosis factor alpha (TNF-α) level in serum ([13]; infection-dependent increase): reduced
ID50 (GM in BALF) fold lower than that of POS ([13]; mouse, in vivo): 6.7 fold
A. fumigatus PCR products in lung tissue ([13]; pilot study): inhibited the accumulation of PCR products
MIC [7]: 1 µg/mL (≈ 1.46 µM)
MIC [8]: 1 µg/mL (≈ 1.46 µM)
concentration at 2 h [14]: 111 to 303 ng/mL
concentration at 8 h [14]: 249 to 339 ng/mL
concentration at 24 h [14]: 41.5 to 50.7 ng/mL
MIC Range [15]: <0.0078 to 2 µg/mL
GM levels in the lung [16]: significant inhibition
number of CFU in the lung [16]: significant inhibition
Hyphae Fold change (washout vs no washout) [9]: 2.4 fold and 2.41 fold
IC50 [9, 24]: 0.00025 µg/mL (≈ 0.000364 µM)
IC50 [9, 25]: 0.00011 µg/mL (≈ 0.00016 µM)
fold more potent than POS at inhibiting hyphal growth ([9]; no washout IC50): 4.1 fold
fold more potent than VRC at inhibiting hyphal growth ([9]; no washout IC50): 100 fold
oral availability [17]: much less oral availability than posaconazole
MIC [18]: 0.25 µg/mL (≈ 0.364 µM)
effect on fungal load and biomarkers [19]: high levels of inhibitory effects
Sterol composition: Eburicol ([20]; compound at 0.0001 μg/ml): 2.5 ± 1.1%
Sterol composition: Ergost-5,7-dienol ([20]; compound at 0.0001 μg/ml): 4.6 ± 1.8%
Sterol composition: Ergosterol ([20]; compound at 0.0001 μg/ml): 91.3 ± 0.1%
Sterol composition: Lanosterol ([20]; compound at 0.0001 μg/ml): 1.7 ± 0.7%
Sterol composition: Eburicol ([20]; compound at 0.001 μg/ml): 3.4 ± 1.2%
Sterol composition: Ergost-5,7-dienol ([20]; compound at 0.001 μg/ml): 4.6 ± 0.8%
Sterol composition: Ergosterol ([20]; compound at 0.001 μg/ml): 89.2 ± 0.2%
Sterol composition: Lanosterol ([20]; compound at 0.001 μg/ml): 2.8 ± 0.6%
Sterol composition: Eburicol ([20]; compound at 0.01 μg/ml): 14.7 ± 1.5%
Sterol composition: Ergost-5,7-dienol ([20]; compound at 0.01 μg/ml): 0%
Sterol composition: Ergosterol ([20]; compound at 0.01 μg/ml): 76.8 ± 2.6%
Sterol composition: Lanosterol ([20]; compound at 0.01 μg/ml): 8.5 ± 1.1%
Sterol composition: Eburicol ([20]; compound at 0.1 μg/ml): 26.7 ± 0.8%
Sterol composition: Ergost-5,7-dienol ([20]; compound at 0.1 μg/ml): 0%
Sterol composition: Ergosterol ([20]; compound at 0.1 μg/ml): 61.0 ± 1.6%
Sterol composition: Lanosterol ([20]; compound at 0.1 μg/ml): 12.3 ± 0.8%
Sterol composition: Eburicol ([20]; compound at 1 μg/ml): 28.2 ± 1.3%
Sterol composition: Ergost-5,7-dienol ([20]; compound at 1 μg/ml): 0%
Sterol composition: Ergosterol ([20]; compound at 1 μg/ml): 58.7 ± 2.2%
Sterol composition: Lanosterol ([20]; compound at 1 μg/ml): 13.1 ± 0.9%
IC50 [21]: 230 nM
Ki [21]: < 1 nM
MIC [22]: 0.5 µg/mL (≈ 0.728 µM)

CC[C@@H]([C@H](C)O)n1ncn(-c2ccc(N3CCN(c4ccc(OC[C@@H]5CO[C@@](Cn6cncn6)(c6ccc(F)cc6F)C5)cc4)CC3)cc2)c1=O [Posaconazole, posaconazole]
MIC [1]: > 8 µg/mL
MIC [3, 26]: 0.016 µg/mL (≈ 0.0228 µM)
MIC [4]: 1 µg/mL (≈ 1.43 µM)
range of MFCs for inhibition of 90% of isolates tested (MFC90) [6]: 0.06 to 2 µg/mL
Ki [12]: < 1 nM
inhibition of GM in serum [13]: −11%
inhibition of fungal load (CFU) in the lung vs vehicle [13]: 39%
log10 ID fold higher than that of PC1244 ([13]; mouse, in vivo): 143 fold
MIC [7]: > 8 µg/mL
MIC [8]: > 8 µg/mL
concentration at 24 h [14]: 15.6 to 125 ng/mL
number of CFU in the lung [16]: did not
IC50 [9, 24]: 0.0022 µg/mL (≈ 0.00314 µM)
IC50 [9, 25]: 0.00045 µg/mL (≈ 0.000642 µM)
MIC [23]: 0.25 µg/mL (≈ 0.357 µM)
MIC ([10]; ATCC36583, CLSI, 2 strains, MIC = 50% inhibition, two individual values for PC1244, read-out: MIC): 0.5 µg/mL (≈ 0.713 µM)
MIC [18]: 0.25 µg/mL (≈ 0.357 µM)
MIC ([11]; CLSI, 2 azole (fluconazole and voriconazole) resistant strains, MIC = 50% inhibition, two individual values for PC1244, read-out: MIC): 8.13 µg/mL (≈ 11.6 µM)
Sterol composition: Eburicol ([20]; compound at 0.0001 μg/ml): 2.2 ± 1.2%
Sterol composition: Ergost-5,7-dienol ([20]; compound at 0.0001 μg/ml): 3.3 ± 1.9%
Sterol composition: Ergosterol ([20]; compound at 0.0001 μg/ml): 94.5 ± 0.1%
Sterol composition: Lanosterol ([20]; compound at 0.0001 μg/ml): 0%
Sterol composition: Eburicol ([20]; compound at 0.001 μg/ml): 5.9 ± 0.5%
Sterol composition: Ergost-5,7-dienol ([20]; compound at 0.001 μg/ml): 3.9 ± 0.6%
Sterol composition: Ergosterol ([20]; compound at 0.001 μg/ml): 87.2 ± 0.7%
Sterol composition: Lanosterol ([20]; compound at 0.001 μg/ml): 3.0 ± 0.9%
Sterol composition: Eburicol ([20]; compound at 0.01 μg/ml): 18.3 ± 1.1%
Sterol composition: Ergost-5,7-dienol ([20]; compound at 0.01 μg/ml): 0%
Sterol composition: Ergosterol ([20]; compound at 0.01 μg/ml): 74.7 ± 0.8%
Sterol composition: Lanosterol ([20]; compound at 0.01 μg/ml): 7.0 ± 0.3%
Sterol composition: Eburicol ([20]; compound at 0.1 μg/ml): 23.4 ± 0.8%
Sterol composition: Ergost-5,7-dienol ([20]; compound at 0.1 μg/ml): 0%
Sterol composition: Ergosterol ([20]; compound at 0.1 μg/ml): 67.8 ± 0.3%
Sterol composition: Lanosterol ([20]; compound at 0.1 μg/ml): 8.8 ± 0.5%
Sterol composition: Eburicol ([20]; compound at 1 μg/ml): 23.8 ± 1.3%
Sterol composition: Ergost-5,7-dienol ([20]; compound at 1 μg/ml): 0%
Sterol composition: Ergosterol ([20]; compound at 1 μg/ml): 67.4 ± 1.5%
Sterol composition: Lanosterol ([20]; compound at 1 μg/ml): 8.8 ± 0.4%
Ki [21]: < 1 nM
MIC [22]: 0.5 µg/mL (≈ 0.713 µM)
